Test results: patent US11439618B2, “Compositions and methods for lowering triglycerides” (Amarin Pharmaceuticals Ireland Limited, priority 2009, dated 2022)

Experiment: Essential fatty acid (EFA) parameters in plasma and RBC, gas chromatography of fatty acid methyl esters
Type: in vivo, human
Procedure: Blood samples (10 mL) were collected at Visit 1 (screening) and at Visits 4, 5 and 6. Analysis was performed by MSR Lipid Analysis, Scottish Crop Research Institute, Dundee, UK. The screening sample acted as baseline for the EFA measurements. Lipid was extracted from plasma, serum and RBC suspensions and converted into fatty acid methyl esters which were analyzed by gas chromatography to give fatty acid profiles as micrograms fatty acid per gram of sample (μgFA/g) and normalized area percent.
RBC and plasma EFA data were collected at baseline, Day 14, 28 and 42 and summarized by visit for each treatment group. Change from baseline and percent change from baseline were also summarized. ANCOVA comparison of ethyl-EPA dose groups and ethyl-EPA versus placebo was performed.
Notable changes for these parameters occurred in the ethyl-EPA treatment groups at Days 14, 28 and 42 compared to placebo.

[1] = plasma, 1 g daily group, Baseline
[2] = plasma, 2 g daily group, Baseline
[3] = plasma, 4 g daily group, Baseline

CC/C=C\C/C=C\C/C=C\C/C=C\C/C=C\CCCC(=O)OCC [Ethyl-EPA, all-cis eicosa-5,8,11,14,17-pentaenoic acid ethyl ester]
EPA, DPAn-3 and EPA/AA ratio values, change from baseline (plasma and RBC, to Day 42, 1, 2 and 4 g): increased substantially from baseline
AA, DHA and DGLA values, change from baseline (plasma and RBC, to day 42, 1, 2 and 4 g): decreased substantially from baseline
AA Mean at Baseline [1]: 202.5 µg/g
DGLA Mean at Baseline [1]: 51.2 µg/g
DHA Mean at Baseline [1]: 73.1 µg/g
DPAn-3 Mean at Baseline [1]: 21.1 µg/g
EPA Mean at Baseline [1]: 48.3 µg/g
EPA/AA Mean (SD) at Baseline [1]: 0.2 (0.14)
AA Mean change from Baseline (plasma, 1 g daily, Day 14): -9.7 µg/g
DGLA Mean change from Baseline (plasma, 1 g daily, Day 14): -10.4 µg/g
DHA Mean change from Baseline (plasma, 1 g daily, Day 14): -6.4 µg/g
DPAn-3 Mean change from Baseline (plasma, 1 g daily, Day 14): 7.5 µg/g
EPA Mean change from Baseline (plasma, 1 g daily, Day 14): 61.2 µg/g
EPA/AA Mean (SD) change from Baseline (plasma, 1 g daily, Day 14): 0.3 (0.4)
AA Mean change from Baseline (plasma, 1 g daily, Day 28): -11.3 µg/g
DGLA Mean change from Baseline (plasma, 1 g daily, Day 28): -10.6 µg/g
DHA Mean change from Baseline (plasma, 1 g daily, Day 28): -6.6 µg/g
DPAn-3 Mean change from Baseline (plasma, 1 g daily, Day 28): 8.9 µg/g
EPA Mean change from Baseline (plasma, 1 g daily, Day 28): 60.3 µg/g
EPA/AA Mean (SD) change from Baseline (plasma, 1 g daily, Day 28): 0.3 (0.20)
AA Mean change from Baseline (plasma, 1 g daily, Day 42): -8.7 µg/g
DGLA Mean change from Baseline (plasma, 1 g daily, Day 42): -9.4 µg/g
DHA Mean change from Baseline (plasma, 1 g daily, Day 42): -5.4 µg/g
DPAn-3 Mean change from Baseline (plasma, 1 g daily, Day 42): 11.3 µg/g
EPA Mean change from Baseline (plasma, 1 g daily, Day 42): 62.0 µg/g
EPA/AA Mean (SD) change from Baseline (plasma, 1 g daily, Day 42): 0.3 (0.24)
AA LS Mean, 1 or 2 g versus 4 g (plasma, 1 g versus 4 g): 4.2 µg/g
DGLA LS Mean, 1 or 2 g versus 4 g (plasma, 1 g versus 4 g): 3.7 µg/g
DHA LS Mean, 1 or 2 g versus 4 g (plasma, 1 g versus 4 g): -0.8 µg/g
DPAn-3 LS Mean, 1 or 2 g versus 4 g (plasma, 1 g versus 4 g): -15.1 µg/g
EPA LS Mean, 1 or 2 g versus 4 g (plasma, 1 g versus 4 g): -111.8 µg/g
EPA/AA LS Mean, 1 or 2 g versus 4 g (plasma, 1 g versus 4 g): −0.66
AA Mean at Baseline [2]: 227.3 µg/g
DGLA Mean at Baseline [2]: 53.5 µg/g
DHA Mean at Baseline [2]: 75.1 µg/g
DPAn-3 Mean at Baseline [2]: 19.7 µg/g
EPA Mean at Baseline [2]: 4.49 µg/g
EPA/AA Mean at Baseline [2]: 0.2
AA Mean change from Baseline (plasma, 2 g daily, Day 14): -13.9 µg/g
DGLA Mean change from Baseline (plasma, 2 g daily, Day 14): -14.1 µg/g
DHA Mean change from Baseline (plasma, 2 g daily, Day 14): -5.4 µg/g
DPAn-3 Mean change from Baseline (plasma, 2 g daily, Day 14): 17.4 µg/g
EPA Mean change from Baseline (plasma, 2 g daily, Day 14): 124.6 µg/g
EPA/AA Mean change from Baseline (plasma, 2 g daily, Day 14): 0.6
AA Mean change from Baseline (plasma, 2 g daily, Day 28): 21.6 µg/g
DGLA Mean change from Baseline (plasma, 2 g daily, Day 28): -16.2 µg/g
DHA Mean change from Baseline (plasma, 2 g daily, Day 28): -8.1 µg/g
DPAn-3 Mean change from Baseline (plasma, 2 g daily, Day 28): 19.4 µg/g
EPA Mean change from Baseline (plasma, 2 g daily, Day 28): 142.2 µg/g
EPA/AA Mean change from Baseline (plasma, 2 g daily, Day 28): 0.8
AA Mean change from Baseline (plasma, 2 g daily, Day 42): -27.3 µg/g
DGLA Mean change from Baseline (plasma, 2 g daily, Day 42): -17.3 µg/g
DHA Mean change from Baseline (plasma, 2 g daily, Day 42): -6.0 µg/g
DPAn-3 Mean change from Baseline (plasma, 2 g daily, Day 42): 19.3 µg/g
EPA Mean change from Baseline (plasma, 2 g daily, Day 42): 133.4 µg/g
EPA/AA Mean change from Baseline (plasma, 2 g daily, Day 42): 0.7
AA LS Mean, 1 or 2 g versus 4 g (plasma, 2 g versus 4 g): 15.6 µg/g
DGLA LS Mean, 1 or 2 g versus 4 g (plasma, 2 g versus 4 g): 2.5 µg/g
DHA LS Mean, 1 or 2 g versus 4 g (plasma, 2 g versus 4 g): 1.5 µg/g
DPAn-3 LS Mean, 1 or 2 g versus 4 g (plasma, 2 g versus 4 g): -9.5 µg/g
EPA LS Mean, 1 or 2 g versus 4 g (plasma, 2 g versus 4 g): -60.9 µg/g
EPA/AA LS Mean, 1 or 2 g versus 4 g (plasma, 2 g versus 4 g): −0.41
AA Mean (SD) at Baseline [3]: 220.9 (42.80) μg/g
DGLA Mean at Baseline [3]: 57.1 µg/g
DHA Mean at Baseline [3]: 78.8 µg/g
DPAn-3 Mean at Baseline [3]: 21.7 µg/g
EPA Mean at Baseline [3]: 49.1 µg/g
EPA/AA Mean (SD) at Baseline [3]: 0.2 (0.07)
AA Mean (SD) change from Baseline (plasma, 4 g daily, Day 14): −27.2 (28.89) μg/g
DGLA Mean change from Baseline (plasma, 4 g daily, Day 14): -22.9 µg/g
DHA Mean change from Baseline (plasma, 4 g daily, Day 14): -10.3 µg/g
DPAn-3 Mean change from Baseline (plasma, 4 g daily, Day 14): 24.5 µg/g
EPA Mean change from Baseline (plasma, 4 g daily, Day 14): 207.7 µg/g
EPA/AA Mean (SD) change from Baseline (plasma, 4 g daily, Day 14): 1.1 (0.28)
AA Mean (SD) change from Baseline (plasma, 4 g daily, Day 28): −43.7 (32.24) μg/g
DGLA Mean change from Baseline (plasma, 4 g daily, Day 28): -24.2 µg/g
DHA Mean change from Baseline (plasma, 4 g daily, Day 28): -13.5 µg/g
DPAn-3 Mean change from Baseline (plasma, 4 g daily, Day 28): 29.7 µg/g
EPA Mean change from Baseline (plasma, 4 g daily, Day 28): 215.2 µg/g
EPA/AA Mean (SD) change from Baseline (plasma, 4 g daily, Day 28): 1.3 (0.42)
AA Mean (SD) change from Baseline (plasma, 4 g daily, Day 42): −48.3 (22.20) μg/g
DGLA Mean change from Baseline (plasma, 4 g daily, Day 42): -22.5 µg/g
DHA Mean change from Baseline (plasma, 4 g daily, Day 42): -13.8 µg/g
DPAn-3 Mean change from Baseline (plasma, 4 g daily, Day 42): 32.0 µg/g
EPA Mean change from Baseline (plasma, 4 g daily, Day 42): 204.6 µg/g
EPA/AA Mean (SD) change from Baseline (plasma, 4 g daily, Day 42): 1.3 (0.45)
